Source: patent US20250213707A1, “COMPOUND FOR INCREASING EFFICACY OF ONCOLYTIC VIRUSES” (ABLEVIA BIOTECH GMBH, priority 2022, published 2025)

Test system: IgG from human donors (anti-AAV antibodies)
Test: Screen for anti-AAV antibodies in human sera, 2452 linear 15-amino-acid AAV peptides on microarrays (Table 1)
Format: binding
Design: key to group I: X: the deduplicated aggregate of the respective top 10 peptide hits for each donor was compiled and designated as group I; key to group II: X: the deduplicated aggregate of the respective top 25 peptide hits for each donor was compiled and designated as group II; key to group III: X: the deduplicated aggregate of the respective top 50 peptide hits for each donor was compiled and designated as group III
Settings: for group I: membership in deduplicated aggregate of top 10 peptide hits for each donor
Summary of the method: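 Peptide hits were grouped I to IV by pooling each donor's top 10, 25, 50 or 250 background-corrected fluorescence signals, after deduplication. Signals came from donor IgG, purified on protein G, bound to arrayed 15-residue linear peptides (2452 total) spanning 16 AAV sequences.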

[1] = human donor IgG binding to linear 15-amino-acid AAV peptides on microarray, fluorescence
[2] = membership in deduplicated aggregate of top 25 peptide hits for each donor, human donor IgG binding to linear 15-amino-acid AAV peptides on microarray, fluorescence
[3] = membership in deduplicated aggregate of top 50 peptide hits for each donor, human donor IgG binding to linear 15-amino-acid AAV peptides on microarray, fluorescence
[4] = X = peptide belongs to the deduplicated aggregate of the top 50 peptide hits for each donor, linear 15-amino-acid AAV peptides, IgG binding by fluorescence
[5] = X = peptide in the deduplicated aggregate of the top 50 peptide hits for each donor (top 17.5% of all peptides screened), linear 15-amino-acid AAV peptides on microarrays, human donor IgG, fluorescence
[6] = X = peptide belongs to the deduplicated aggregate of the top 25 peptide hits for each donor, linear 15-amino-acid AAV peptides, IgG binding by fluorescence

Substance | group I [1] | group II [2] | group III [3] | group III [4] | also measured
KGEPVNAADAAALE (REGION 1..14: note = peptide derived from viral capsid protein) [SEQ ID NO: 1952] | × | X | X | – | –
FQERLQEDTSFGGN [SEQ ID NO: 1949] | X | X | X | – | –
292 (HDDEERFFPSSGVLM; REGION 1..15: note = peptide derived from viral capsid protein) [compound 292] | – | – | – | X | –
325 (DNNEGADGVGNSSGN; REGION 1..15: note = peptide derived from viral capsid protein) [compound 325] | – | – | – | X | –
425 (ELQKENSKRWNPEIQ; REGION 1..15: note = peptide derived from viral capsid protein) [compound 425] | – | – | – | – | group III [5]: X
424 (ENSKRWNPEIQYTSN; REGION 1..15: note = peptide derived from viral capsid protein) [compound 424] | – | – | – | – | group III [5]: X
362 (AHQGCLPPFPADVFM; REGION 1..15: note = peptide derived from viral capsid protein) [compound 362] | – | – | – | X | –
EEIKTTNPVATEQY (REGION 1..14: note = peptide derived from viral capsid protein) [SEQ ID NO: 1945] | X | X | X | – | –
285 (PSKMLRTGNNFEFTY; REGION 1..15: note = peptide derived from viral capsid protein) [compound 285] | – | – | – | X | group II [6]: X
DEEEIKATNPVATE (REGION 1..14: note = peptide derived from viral capsid protein) [SEQ ID NO: 1932] | X | X | X | – | –
475 (AGPPKPKPNQQHQDQ; REGION 1..15: note = peptide derived from viral capsid protein) [compound 475] | – | – | – | – | group III [5]: X
466 (ELKKENSKRWNPEIQ; REGION 1..15: note = peptide derived from viral capsid protein) [compound 466] | – | – | – | – | group III [5]: X
282 (FITQYSTGQVTVEME; REGION 1..15: note = peptide derived from viral capsid protein) [compound 282] | – | – | – | X | group II [6]: X
APGKKRPVDQSPQE (REGION 1..14: note = peptide derived from viral capsid protein) [SEQ ID NO: 1918] | X | X | X | – | –
317 (HKDDEEKFFPQSGVL; REGION 1..15: note = peptide derived from viral capsid protein) [compound 317] | – | – | – | X | –
LPYVLGSAHQGCLP (REGION 1..14: note = peptide derived from viral capsid protein) [SEQ ID NO: 1954] | X | X | X | – | –
TAPGKKRPVDQSPQ (REGION 1..14: note = peptide derived from viral capsid protein) [SEQ ID NO: 1923] | X | X | X | – | –

Substance | group I [1] | group II [2] | group III [3] | group III [4] | also measured
DKAYDQQLQAGDNP (REGION 1..14: note = peptide derived from viral capsid protein) [SEQ ID NO: 1928] | X | X | X | – | –
PRDWQRLINNNWGF (REGION 1..14: note = peptide derived from viral capsid protein) [SEQ ID NO: 1960] | X | X | X | – | –
KNTPVPADPPTTES [SEQ ID NO: 1930] | X | X | X | – | –
481 (LGLEAGPPKPKPNQQ; REGION 1..15: note = peptide derived from viral capsid protein) [compound 481] | – | – | – | – | group III [5]: X
316 (EPVKTAPGKKRPVEH; REGION 1..15: note = peptide derived from viral capsid protein) [compound 316] | – | – | – | X | –
331 (DSLVNPGPAMASHKD; REGION 1..15: note = peptide derived from viral capsid protein) [compound 331] | – | – | – | X | –
HSQSLDRLMNPLID (REGION 1..14: note = peptide derived from viral capsid protein) [SEQ ID NO: 1951] | X | X | X | – | –
GQNNNSNFAWTAGT [SEQ ID NO: 1936] | X | X | X | – | –
428 (PVATEEYGIVADNLQ; REGION 1..15: note = peptide derived from viral capsid protein) [compound 428] | – | – | – | – | group III [5]: X
353 (TPWGYFDFNRFHCHF; REGION 1..15: note = peptide derived from viral capsid protein) [compound 353] | – | – | – | X | –
301 (STTLSQNNNSNFAWT; REGION 1..15: note = peptide derived from viral capsid protein) [compound 301] | – | – | – | × | –
313 (QGCLPPFPADVFMVP; REGION 1..15: note = peptide derived from viral capsid protein) [compound 313] | – | – | – | X | –
DKDKFFPMSGVMIF (REGION 1..14: note = peptide derived from viral capsid protein) [SEQ ID NO: 1933] | X | X | X | – | –
363 (ASFITQYSTGQVSVE; REGION 1..15: note = peptide derived from viral capsid protein) [compound 363] | – | – | – | X | –
329 (DADSVPDPQPLGQPP; REGION 1..15: note = peptide derived from viral capsid protein) [compound 329] | – | – | – | X | –
287 (AQPASSLGADTMSAG; REGION 1..15: note = peptide derived from viral capsid protein) [compound 287] | – | – | – | X | group II [6]: X
PWGYFDFNRFHCHF (REGION 1..14: note = peptide derived from viral capsid protein) [SEQ ID NO: 1961] | X | X | X | – | –
